In general, pIC50 refers to −log10 of the IC50, conventionally taken in molar units. A high value points to a low IC50. As usually defined, the pKd is the negative decadic logarithm of the Kd, by convention in mol/L.

pIC50, pKd: −log10 of the molar value.

We go through three compounds from patent US20260265304A1, “PEPTIDE INHIBITORS OF FOCAL ADHESION KINASE ACTIVITY AND USES THEREOF” (Arizona Board of Regents on Behalf of the University of …, priority 2019, published 2026).

In one data set the target is T1, trypsin (Bos taurus, UniProt P00760).
T1 construct: purchased ThermoFisher
T1 sequence (P00760 24-246): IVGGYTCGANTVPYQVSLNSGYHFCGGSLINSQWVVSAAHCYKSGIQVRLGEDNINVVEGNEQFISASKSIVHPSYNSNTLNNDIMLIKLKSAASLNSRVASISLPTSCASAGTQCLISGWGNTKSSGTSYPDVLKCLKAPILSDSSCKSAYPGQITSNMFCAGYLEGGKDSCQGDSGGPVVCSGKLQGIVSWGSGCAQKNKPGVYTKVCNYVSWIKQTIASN
Nature of the data set: In vitro trypsin digest assay (trypsin-agarose beads, LC-MS). The data set is classed as in vitro ADME. The settings on record: trypsin-agarose beads in physiological buffer, read-out: t1/2 in trypsin digest (protease resistance) (converted). The procedure: Assays were performed using trypsin-agarose beads (ThermoFisher) and measurement of peptide concentration using LC-MS. Peptide half-lives were calculated using GraphPad Prism software.
Trypsin-agarose beads were used to test the potential cleavage of peptides in a physiological buffer and LC-MS was used as the analytical method to determine peptide concentration.

Data set [1] relates to SK-MEL-103 melanoma cells. Nature of the data set: Boyden-chamber invasion assay. The format is cell-based. The settings on record: SK-MEL-103, compared to Defactinib relative to compound KD. Here is the method:
(§1) B. Competition FP experiment with 1907 showing inhibition of TAMRA-LD2 binding to FAT. C. SPR binding and selectivity analysis using WT FAT and Mutant FAT (L994E, 1936A) at the helix-protein interface. D. Flow cytometry analysis of Rhodamine-1907 (10 μM) cellular uptake in MDA-MB-453 breast cancer cells. E. Boyden-chamber invasion assays in SK-MEL-103 melanoma cells. F. 3D Matrigel-on-top proliferation assays in SK-MEL-103 melanoma cells.
(§2) To further evaluate the activity of 1907, experiments were conducted that tested the peptide in a flow cytometry-based cell permeability assay. […] Experiments were also conducted to test the cellular efficacy in SK-MEL-103 melanoma cells.

In data set [2] the test system is SK-MEL-103 melanoma cells. Description: 3D Matrigel-on-top proliferation assay. The settings on record: for pIC50: SK-MEL-103 melanoma cells, 3D Matrigel-on-top. The data set is classed as cell-based. Here is the method:
as §1
(§3) B. 3D structure of negative control molecule (UACC-2020). C. 3D Matrigel-on-top cell proliferation data of stapled peptides in SK-MEL-103 melanoma cells.
(§4) A negative control myristoylated peptide (2020) was designed and synthesized based on non-active molecule 2014. Experiments were conducted to test the efficacy of these peptides in 3D proliferation assays using SK-MEL-103 melanoma cells. […] Furthermore, 2012 had no effects on the proliferation of normal HUVEC cells (IC50=NA) (FIG. 7).

The subject of another data set is HUVEC cells. Nature of the data set: 3D Matrigel-on-top proliferation assay in normal cells. The data set is classed as cell-based. The procedure:
as §3, §4

In data set [3] the target is T2, FAK FAT domain (biotinylated Avitag-FAT protein) (Homo sapiens, UniProt Q05397).
T2 construct: biotinylated Avitag-FAT protein was diluted in running buffer
T2 sequence (Q05397 914-1045 limits assumed): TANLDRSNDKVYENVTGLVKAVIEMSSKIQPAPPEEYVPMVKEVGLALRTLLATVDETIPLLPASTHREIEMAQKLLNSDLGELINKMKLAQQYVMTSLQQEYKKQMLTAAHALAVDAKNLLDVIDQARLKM
Nature of the data set: Surface plasmon resonance (SPR) binding to immobilised FAT protein. The settings on record: FAT protein immobilised, peptide 200 μM-0.01 μM, 1:1 binding model; read-out: SPR KD.

The test system of data set [4] is LX2 human liver stellate cells. Nature of the data set: Anti-fibrotic activity in TGF-β-induced stellate cells (Western blot, morphology). The data set is classed as cell-based. The procedure: A. Western blot studies of LX2 cells treated with 2 ng/ml TGF-β for 17 h to induce pro-fibrotic phenotypes. […] Quantification of fibronectin results are shown in the lower panel. B. Morphological changes of LX2 cells after TGF-β and peptide treatment for 17 h. Images were captured using bright field microscopy.
Experiments were conducted to test the anti-fibrotic effects of stapled peptides targeting the FAK FAT domain (FIG. 13). TGF-β induction was performed in LX-2 human liver stellate cells to promote a pro-fibrotic phenotypic and differentiation to myofibroblast-like cells.
(In general: Immunoblotting shows a protein as a band on a membrane.)

Data set [5] concerns MDA-MB-453 breast cancer cells. Description: Flow cytometry-based cell permeability assay. To be noted: MDA-MB-453 cells, 10 μM, compared to Rhodamine only control. Here is the method: as §1, §2
Flow cytometry assays performed on the Canto II flow cytometer (BD Biosciences) were utilized to measure cellular uptake of TAMRA-tagged peptides. In brief, the instrument was properly gated using cells treated with TAMRA-only as a positive control. Also, cells treated with untagged peptide were used as a negative control to rule out non-specific signal. Cells were treated with TAMRA-tagged peptides for a duration of 2 h-48 h to measure cellular uptake. Permeability of peptide was reported as % positivity relative to TAMRA positive control and mean fluorescence intensity (MFI).
(In general: In flow cytometry, cells or beads pass a laser one at a time.)

For `CC(=O)N[C@@H](CC(N)=O)C(=O)N[C@@H](CC(C)C)C(=O)N[C@]1(C)CCCCCC/C=C/CCC[C@@](C)(C(=O)N[C@@H](CCC(=O)O)C(=O)N[C@@H](CC(C)C)C(=O)N[C@@H](CC(N)=O)C(N)=O)NC(=O)[C@H](CC(C)C)NC(=O)[C@H](CC(C)C)NC(=O)[C@H](CCCNC(=N)N)NC(=O)[C@H](CC(=O)O)NC(=O)[C@H](CC(C)C)NC(=O)[C@H](CCC(=O)O)NC1=O` [Peptide 1907, Ac-NLR8ELDRLLS5ELN-NH2], the half-life on trypsin was 15.7 h. Also, in data set [1], the inhibition of invasion entry is recorded as “effectively inhibited”. In addition, the “inhibition of 3D proliferation” value in data set [2] (SK-MEL-103, compared to Defactinib relative to compound KD) is “effectively inhibited”. The compound further showed a pIC50 in data set [2] of 4.22.

Regarding `CCCCCCCCCCCCCC(=O)N[C@@H](CC(N)=O)C(=O)N[C@@H](CC(C)C)C(=O)N[C@]1(C)CCCCCCC=CCCC[C@@](C)(C(=O)N[C@@H](CCC(=O)O)C(=O)N[C@@H](CC(C)C)C(=O)N[C@@H](CC(N)=O)C(N)=O)NC(=O)[C@H](CC(C)C)NC(=O)[C@H](CC(C)C)NC(=O)[C@H](CCCNC(=N)N)NC(=O)[C@H](CC(=O)O)NC(=O)[C@H](CC(C)C)NC(=O)[C@H](CCC(=O)O)NC1=O` [Peptide 2012, Myristoyl-NLR8ELDRLLS5ELN-NH2], the “3D proliferation IC50” value in the data set with HUVEC cells is “no effects”. Further, the half-life at trypsin is over 48 h. For the same compound, the pKd in data set [3] was under 3.70. Besides, the “TGF-β-induced expression of fibronectin” value in data set [4] (LX2 cells, 2 ng/ml TGF-β 17 h, peptide 10, 5, 2 μM pretreated 1 h) is reported as “reduced the TGF-β-induced expression of fibronectin, a marker of fibrosis, in a dose-dependent manner”. For the same compound, the “morphological change of TGF-β-induced cells” value in data set [4] (LX-2 cells, TGF-β and peptide treatment 17 h, bright field microscopy) is listed as “induced a morphological change”. The compound further had a pIC50 in data set [2] of 5.26.

Turning to `CCN(CC)c1ccc2c(-c3ccccc3C(=O)NCCC(=O)N[C@@H](CC(N)=O)C(=O)N[C@@H](CC(C)C)C(=O)N[C@]3(C)CCCCCCC=CCCC[C@@](C)(C(=O)N[C@@H](CCC(=O)O)C(=O)N[C@@H](CC(C)C)C(=O)N[C@@H](CC(N)=O)C(N)=O)NC(=O)[C@H](CC(C)C)NC(=O)[C@H](CC(C)C)NC(=O)[C@H](CCCNC(=N)N)NC(=O)[C@H](CC(=O)O)NC(=O)[C@H](CC(C)C)NC(=O)[C@H](CCC(=O)O)NC3=O)c3ccc(=[N+](CC)CC)cc-3oc2c1` [Peptide 2016, RhoB-1907], in data set [5], the “cellular uptake / crossing of the cell membrane” value is on record as “successfully crossed the cell membrane”.
